Source: patent publication US8933037B2, “Methods involving PDGFRBETA inhibitors” (Medizinische Universitat Wien, priority 2009, dated 2015)
Entries after “also recorded” stand apart in the source; their conditions may differ.

Columns and labels:
CD30 = conditions: cited from earlier work
Karpas-299 lymphomas = conditions: cited from earlier work
SR-786 cells = assay: Alamar Blue assay (apoptosis), SR-786 cells; assay type: cell-based, human
Method: (§1) Apoptosis rates were measured by Alamar Blue assays. The active ingredient of Alamar Blue is resazurin, a non-fluorescent dark blue indicator dye. It is able to permeate cells and is converted to resorufin, a fluorescent, bright red dye, in a reduction reaction by living (metabolically active) cells. The produced fluorescence is proportional to the number of metabolically active cells.
(§2) We incubated SR-786 and 417 cells treated with 0-20 μM imatinib with Alamar Blue for one hour at 37 degrees Celsius.

NPM-ALK = target: T1, NPM-ALK (Homo sapiens, UniProt Q9UM73); conditions: cited from earlier work
T1 construct: the other entry of the earlier key: NPM1 (P06748, Nucleophosmin)
T1 sequence (Q9UM73 with tags, fused parts or gaps): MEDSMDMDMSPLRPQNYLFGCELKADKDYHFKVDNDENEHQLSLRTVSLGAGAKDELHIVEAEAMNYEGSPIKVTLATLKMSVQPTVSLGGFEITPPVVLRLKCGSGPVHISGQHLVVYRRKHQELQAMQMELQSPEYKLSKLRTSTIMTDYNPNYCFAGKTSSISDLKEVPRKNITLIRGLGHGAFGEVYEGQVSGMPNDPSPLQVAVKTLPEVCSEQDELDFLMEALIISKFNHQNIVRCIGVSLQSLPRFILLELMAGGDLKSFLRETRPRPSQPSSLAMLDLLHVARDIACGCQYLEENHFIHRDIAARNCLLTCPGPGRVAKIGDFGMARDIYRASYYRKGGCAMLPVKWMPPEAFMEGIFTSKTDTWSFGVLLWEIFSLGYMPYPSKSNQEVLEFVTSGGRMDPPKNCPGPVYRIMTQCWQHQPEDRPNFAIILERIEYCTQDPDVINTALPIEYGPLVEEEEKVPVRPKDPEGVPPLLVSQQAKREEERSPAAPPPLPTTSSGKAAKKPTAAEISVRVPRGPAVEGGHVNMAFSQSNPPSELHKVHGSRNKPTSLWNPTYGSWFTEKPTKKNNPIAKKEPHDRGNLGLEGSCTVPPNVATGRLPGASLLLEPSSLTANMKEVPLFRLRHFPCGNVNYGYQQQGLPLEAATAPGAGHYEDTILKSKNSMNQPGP

417 cells = assay: Alamar Blue assay (apoptosis), 417 cells; assay type: cell-based, mouse
Method: as §1, §2

[1] = system: murine NPM-ALK and PDGFRB positive cell line 417; assay: Cell number after three days culture with inhibitor, cell line 417; conditions: different concentrations, three days in RPMI medium
[2] = system: human ALK positive ALCL cell lines; conditions: cited from earlier work
[3] = system: murine NPM-ALK positive cell line CD4-417 tumors; assay: Murine xenograft model, CD4-417 cells in flank of SCID mice
[4] = system: human NPM-ALK positive and PDGFRB negative cell line SR-786; assay: Cell number after three days culture with inhibitor, cell line SR-786; conditions: different concentrations, three days in RPMI medium
human ACLC/HD-cell lines = conditions: cited from earlier work
HD and ALCL = conditions: cited from earlier work

**Q.** For `COc1cc(N2CCC(N3CCN(C)CC3)CC2)ccc1Nc1ncc(Cl)c(Nc2ccccc2S(=O)(=O)C(C)C)n1` [NVP-TAE684], which CD30 expression (CD30) is on record?
**A.** induced down-regulation

**Q.** And the “established Karpas-299 lymphomas in vivo” value (Karpas-299 lymphomas)?
**A.** induced regression

**Q.** And the “lymphomagenesis in two independent models of ALK-positive ALCL” value (Karpas-299 lymphomas; in vivo)?
**A.** suppress lymphomagenesis

**Q.** For `Cc1ccc(NC(=O)c2ccc(CN3CCN(C)CC3)cc2)cc1Nc1nccc(-c2cccnc2)n1` [imatinib, 4-[(4-methylpiperazin-1-yl)methyl]-N-[4-methyl-3-[(4-pyridin-3-ylpyrimidin-2-yl)amino]phenyl]benzamide], which “conversion of resazurin to resorufin, SR-786 cells” value (SR-786 cells; 0-20 μM, Alamar Blue one hour at 37 degrees Celsius) is on record?
**A.** comparable rate, regardless of imatinib concentrations

**Q.** And the “apoptosis by Alamar Blue, SR-786 cells” value (SR-786 cells; up to 20 μM, three days)?
**A.** unaffected

**Q.** What about the “binding to ALK” value (NPM-ALK) of the same molecule?
**A.** unable to bind ALK

**Q.** And the “sensitivity of NPM-ALK to imatinib treatment” value (NPM-ALK)?
**A.** insensitive

**Q.** What about the “conversion of resazurin to resorufin, 417 cells at 0-10 μM” value (417 cells; 0-10 μM, Alamar Blue one hour at 37 degrees Celsius) of the same molecule?
**A.** responded similar to SR-786 cells

**Q.** And the “conversion of resazurin to resorufin (color change), 417 cells at 20 μM” value (417 cells; 20 μM, Alamar Blue one hour at 37 degrees Celsius)?
**A.** not able to induce the color change

**Q.** And the “apoptosis by Alamar Blue, 417 cells at 20 μM” value (417 cells; 20 μM, three days after treatment)?
**A.** strongly increased; also recorded: high apoptosis

**Q.** What about the “apoptosis by Alamar Blue, 417 cells, dose dependence” value (417 cells; in vitro, 0-20 μM) of the same molecule?
**A.** increased apoptosis rates; also recorded: dose dependent apoptosis

**Q.** What about the “cell number (antiproliferative effect), cell line 417” value [1] of the same molecule?
**A.** increasingly impaired; also recorded: strongly react; also recorded: reduced cell numbers; also recorded: dose dependent reduction in cell number

**Q.** What about the “effect on ALCL cell lines” value [2] of the same molecule?
**A.** unable to show effects

**Q.** For `Cc1cn(-c2cc(NC(=O)c3ccc(C)c(Nc4nccc(-c5cccnc5)n4)c3)cc(C(F)(F)F)c2)cn1` [nilotinib, 4-methyl-N-[3-(4-methyl-1H-imidazol-1-yl)-5-(trifluoromethyl)phenyl]-3-[(4-pyridin-3-ylpyrimidin-2-yl)amino]benzamide], which “cell number (antiproliferative effect), cell line 417” value [1] is on record?
**A.** strongly react; also recorded: dose dependent reduction in cell number

**Q.** And the “tumor weight vs untreated control tumors” value ([3]; after 6 days of treatment)?
**A.** drastically reduced

**Q.** What about the tumor size reduction ([3]; nilotinib treatment, xenografted mice) of the same molecule?
**A.** more than 59%

**Q.** What about the “cell number / proliferation rates, cell line SR-786” value [4] of the same molecule?
**A.** remain unaffected

**Q.** What does the source list for `CNC(=O)c1cc(Oc2ccc(NC(=O)Nc3ccc(Cl)c(C(F)(F)F)c3)cc2)ccn1` [sorafenib, 4-[4-[[4-chloro-3-(trifluoromethyl)phenyl]carbamoylamino]phenoxy]-N-methyl-pyridine-2-carboxamide]?
**A.** apoptosis in human ACLC/HD-cell lines (human ACLC/HD-cell lines): able to induce apoptosis; in vivo treatment of HD and ALCL (HD and ALCL): not effective
